The values that follow come from patent US20220133702A1, “CYSTIC FIBROSIS TRANSMEMBRANE CONDUCTANCE REGULATOR MODULATORS FOR TREATING AUTOSOMAL DOMINANT POLYCYSTIC KIDNEY DISEASE” (The Johns Hopkins University, priority 2020, published 2022).

The structures appear in SMILES notation.

Data set [1] deals with Pkd1^fl/fl; Pax8^rtTA; TetO-cre mice. The experiment in a line: Cyst growth and renal function in doxycycline-induced Pkd1 knockout mice. In kind it is in vivo, mouse. The procedure: (FIG. 1A) Representative images of postnatal day (PND) 21 kidney sections from DMSO- and VX-809-treated mice. Significant reductions occurred in (FIG. 1B) cyst index, (FIG. 1C) kidney weight, and (FIG. 1D) kidney-to-body weight ratio. […] Methods: The total kidney area and total cystic area were measured with ImageJ (provided by NIH). Cystic index=100 X (total cystic area/total kidney area) and is expressed as a percentage. Columns represent means±standard error (SEM) for DMSO (vehicle)-treated (n=4-5) and VX-809 mice. *P<0.05; **P<0.01 (for all graphs). Statistical analysis was performed using an unpaired two-tailed Student's t-test;
When treated with doxycycline, these mice express Cre, causing knockout of PC1. […] Kidney weight (FIG. 1C) and kidney-to-body weight ratios (FIG. 1D) were also lower than those of the control mice. There was no difference in overall body weight (FIG. 1E) between the treated and untreated groups. […] The dosage of VX-809 injected was lower than the human pediatric dose, which is 500 mg of Lumacaftor per day; the adult dose is 800 mg/day.
Mouse strain and treatment. Pkd1^fl/fl; Pax8^rtTA; TetO-cre mice on a C57BL/6 background (61) were provided by the Baltimore PKD Center. Mice of both sexes were used in this study. Mice were injected IP with doxycycline (Sigma, #D9891) (4 μg of doxycycline/g body weight) on postnatal day 11 (PND11), PND12, and PND13 to produce very rapid and aggressive cyst growth. On PND21, the mice were euthanized.
To determine the location of PC2 in the cilia, confocal microscopy experiments using the Pkd1^fl/fl; Pax8^rtTA TetO-cre mouse model were conducted. These mice, when injected intraperitoneally (IP) with doxycycline on postnatal days (PND) 11, 12, and 13, developed multiple large cysts and large polycystic kidneys at approximately 3 weeks of age.

For data set [2], the system named is HSP27, HSP70 and HSP90 in PN cells. The experiment in a line: Western blot of heat shock proteins in cells. In kind it is cell-based, mouse. As to conditions: 10 μM, 16 h. As for the experimental part:
FIG. 8A, FIG. 8B, FIG. 8C, FIG. 8D, FIG. 8E, FIG. 8F, FIG. 8G, and FIG. 8H show chaperone expression is altered in PH and PN cells by VX-809. […] Western blot showing expression of HSP27, HSP70 and HSP90 in VX-809 treated or control PN cells. […] (FIG. 8E). Western blot of HSP27, HSP70 and HSP90 in PH vs. PN cells. […] Whereas, Hsp70 is higher in PH vs. PN cells. Data were analyzed by non-parametric t test. Experiment was repeated 4-5 times. Cells were grown in 10-cm culture dishes at permissive conditions (33° C.) with y-interferon in culture media. Cells were then transferred to non-permissive conditions at 37° C., y-interferon free culture media and evaluated at full confluence. At day four, cells were treated with VX-809 (10 μM) for 16 h and harvested on fifth day for assay. *P<0.05., **P<0.01, ***P<0.001, ****P<0.0001;
To facilitate their growth in the kidney, cysts have developed an altered network of proteins that most likely serves to protect them from stress . Next, it was determined whether VX-809 would alter the levels of Hsps in pkd−/− mice and in PN cells. […] Hsp 27, 70 and 90 are all elevated in cystic kidneys compared to normal controls. […] There is no change in Hsp40. […] Both sets of data are consistent with an alteration in the heat shock response to cyst growth.
For orientation: In western blotting, separated proteins are transferred to a membrane and probed.

A further data set concerns GRP78, Ero1, and GADD153. The experiment in a line: Western blot of ER stress markers in kidney tissue lysates. The format is in vivo, mouse. As to conditions: 30 mg/kg BW, cyst-induced mice. The procedure:
FIG. 11A. FIG. 11B, FIG. 11C, FIG. 11D, and FIG. 11E show expression of ER stress markers GRP78, Ero1, and GADD in Pkd1-1 mice treated with VX-809. (FIG. 11A & FIG. 11D) Representative Western blot images of GRP78, ErO1, and GADD in lysates of kidney tissue from no cyst induced (ND), cyst induced with doxycycline (D) or cyst induced pkd−/− mice treated with VX-809 (D+VX-809) 30 mg/kg BW. (FIG. 11B, FIG. 11C and FIG. 11E) Columns represent averages±standard errors of GRP78, Ero1, and GADD153 expression. Data were analyzed by non-parametric t-test. n=4 for each treated and control groups. Black lines between lanes represent representative experiments from the same gel but loaded in different lanes. **P<0.01, ***P<0.001;
Given that VX-809 alters an ensemble of Hsps, it was evaluated whether VX-809 alters proteins associated with ER stress. To address this question, the levels of three ER stress-associated proteins were measured, 78-kDa glucose-regulated protein (GRP78), ER oxidoreductin 1 (Ero1) and DNA damage-inducible protein 3 (GADD153), also known as C/EBP homologous protein (CHOP) (37). The results are depicted in FIG. 11 show no changes in GRP78 or Ero1 in response to VX-809.

Another data set concerns NHE3 in PN cells. The experiment in a line: NHE3 activity. As to conditions: treated PN cells vs PN cells. The format is cell-based, mouse. As for the experimental part:
FIG. 15A and FIG. 15B show NHE3 activity in PN and PH cells (FIG. 15A and FIG. 15B) and NHE3 activity in PN cells treated with VX-809.
FIG. 16A, FIG. 16B, and FIG. 16C show NHE activity in PN/PH cells or PN cells treated with VX-809;
The expression and activity of […] were evaluated. Specifically, NHE3 expression was evaluated in PN cells that were treated with VX-809. […] was also studied in PN, PH, and PN cells treated with VX-809. […] Next, NHE3 activity was evaluated in PN/PH cells or PN cells treated with VX-809. NHE3 activity was increased in PN cells treated with VX-809, as compared to PN cells (FIG. 16A). NHE3 activity was higher in control PH cells than in PN cells (FIG. 16B). […] NHE3 activity was increased in both VX-809 treated PN cells and control PH cells, as compared to control PN cells (FIG. 16C).

[3] abbreviates: 30 mg/kg IP daily PND10 to PND20, vs DMSO-treated mice.
Setting [4] is: 30 mg/kg IP daily PND10 to PND20, vs control mice.
Where [5] appears, read: injected daily PND10 to PND20, vs DMSO-treated mice.

`Cc1ccc(NC(=O)C2(c3ccc4c(c3)OC(F)(F)O4)CC2)nc1-c1cccc(C(=O)O)c1` [VX-809, lumacaftor]: the overall body weight entry in data set [1] (30 mg/kg IP daily PND10 to PND20, treated vs untreated) is reported as “no difference”. In data set [1] (setting [3]), the “blood urea nitrogen (BUN)” value was “lowered”, the creatinine entry is given as “lowered” and the “cyst growth (cyst index)” value is listed as −60.4%. In data set [1] (setting [4]), the Kidney weight entry is listed as “lower” and the kidney-to-body weight ratios entry is on record as “lower”. In data set [1] (setting [5]), the “cyst growth (in words)” value is on record as “significantly less cyst growth” and the renal function entry was “improved renal function”. In data set [2], the Hsp27 expression entry is “reduced expression”, the Hsp70 expression result is “reduced expression” and the Hsp90 expression result is recorded as “reduced expression”. Also, in the data set with GRP78, Ero1, and GADD153, the Ero1 level result is reported as “no changes”, the GADD153 level result was “equally dramatic reduction” and the GRP78 level entry was “no changes”. Besides, the NHE3 activity result in the data set with NHE3 in PN cells is given as “significantly increased”.
